Assay results as given in US9284283B2, “Macrocyclic compounds for modulating IL-17” (ENSEMBLE THERAPEUTICS CORPORATION, priority 2012, dated 2016).

Molecular target: T1, biotinylated human IL-17 (binding to IL17R/Fc) (Homo sapiens, UniProt Q16552)
T1 construct: purchased R&D Systems 317-ILB (IL-17, biotinylated); 177-IR (IL17R/Fc)
T1 sequence (Q16552 20-155 limits assumed): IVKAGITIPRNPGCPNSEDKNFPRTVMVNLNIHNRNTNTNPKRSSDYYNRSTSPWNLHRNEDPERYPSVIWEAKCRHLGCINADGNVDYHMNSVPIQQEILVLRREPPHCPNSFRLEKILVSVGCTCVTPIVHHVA
Experiment: IL-17 competition ELISA II (captured IL17R/Fc, biotinylated IL-17)
Experimental: In this version, a high binding 96-well plate (Costar #9018) was coated with 20 nM of goat anti-human IgG (KPL 01-10-02) in PBS, 100 μL/well, for 30 min at 37° C. followed by 5 min at 4° C. The plate was then washed in PBST (PBS/0.05% Tween-20) on a plate washer, (BioTek ELx450) then blocked with protein-free blocking buffer (Thermo Scientific #37573) in 250 μL/well for 30 min on a shaker at room temperature, and then washed again. IL17R/Fc (R&D Systems #177-IR; 10 nM in PBST, 100 μL/well) was then added to all wells. The plate was then incubated for 30 minutes at room temperature on the shaker.
While the receptor capture step was underway, compound dilutions were prepared in PBST to a concentration of 1 μM in 1.5 mL tubes. After the receptor capture step, the plate was washed and 50 μL PBST was added to the wells in row B down to row H. Then, 62.5 μL of the 1 μM compound dilutions were added to the wells of row A. From row A, 12.5 μL of the compound solution was removed and added to row B with mixing and this process of 5-fold dilutions was continued, by row, to row G. One of the wells in row A received only PBST (62.5 μL) and this dilution series served as the no competitor control. Then, going up from row G to row A, 50 μL of b-IL-17 (biotinylated human IL-17, R&D Systems #317-ILB; 20 nM) was added to all wells. Row H received 50 μL of PBST and served as the blank row, i.e., no compound and no b-IL-17. The plate was then incubated for 30 minutes at room temperature on the shaker.
After the wash, 100 μL Streptavidin-Horseradish Peroxidase (SA-HRP) (KPL #14-30-00) at 25 ng/mL in PBST was added to each well in the plate and the plate incubated for 30 minutes at room temperature followed by wash and 100 μL SureBlue™ TMB (KPL #52-00-03). After sufficient color development (approx 3-6 minutes), the reaction was fixed by the addition of 100 μL/well 0.5 N HCl and absorbance was measured at 450 nm on a BioTek Synergy 2 plate reader. The absorbances of ‘no competitor’ control and blank control should not exceed 1.5 A.U. and 0.06 A.U., respectively.
Data was processed using BioAssay Enterprise v10.1.4 (CambridgeSoft) software. Linear OD λ450 were plotted against log concentration (x) and fitted to a 4-parameter logistic equation. IC50 was calculated using positive ‘no competitor’ control data as an upper limit and blank control as a lower limit in each assay.

| IC50 [nM] | SMILES |
| --- | --- |
| 100 to 1000 | O=C1CC2(CCCC2)CC(=O)N[C@H](Cc2ccc(NC(=O)[C@@H](NC(=O)c3ccncc3)C3CCCCC3)cc2)C(=O)N[C@H](Cc2ccccn2)C(=O)NCCCCCN1 [Compound 436] |
| 100 to 1000 | CC(C)(C)[C@H]1NC(=O)[C@@H](Cc2ccc(NC(=O)[C@H](Cc3ccccc3Cl)NC(=O)C3(c4ccc(F)cc4)CC3)cc2)NC(=O)CC2(CCCC2)CC(=O)NCCCCCNC1=O [Compound 471] |
| < 100 | COC(=O)N[C@@H](Cc1ccccc1Cl)C(=O)Nc1ccc(C[C@H]2NC(=O)CC3(CCCC3)CC(=O)N(C)CCOCCOCCNC2=O)cc1 [Compound 568] |
| < 100 | CN1CCNC(=O)CC2(CCCC2)CC(=O)N[C@H](Cc2ccc(NC(=O)[C@H](Cc3ccccc3Cl)NC(=O)Cc3ccc(CO)cc3)cc2)C(=O)NCC1 [Compound 402] |
| < 100 | CN(C)CCCC[C@H]1NC(=O)[C@@H](Cc2ccc(NC(=O)[C@H](Cc3ccccc3Cl)NC(=O)C(F)(F)c3ccccc3)cc2)NC(=O)CC2(CCCC2)CC(=O)N(C)CCOCCN(C)C1=O [Compound 641] |
| 100 to 1000 | C[C@H]1NC(=O)[C@@H](Cc2ccc(NC(=O)[C@H](Cc3ccccc3Cl)NC(=O)C(F)(F)c3ccccc3)cc2)NC(=O)CC2(CCCC2)CC(=O)NCCN2CCN(CC2)C1=O [Compound 533] |
| 100 to 1000 | CN1CCNCCOC(=O)CC2(CCCC2)CC(=O)N(C)[C@H](Cc2ccc(NC(=O)[C@H](Cc3ccccc3Cl)NC(=O)Cc3ccccc3)cc2)C(=O)N[C@H](Cc2ccccc2)C1=O [Compound 426] |
| < 100 | O=C1CC2(CCCC2)CC(=O)N[C@H](Cc2ccc(NC(=O)[C@H](Cc3ccccc3Cl)NC(=O)Cc3ccc(CO)cc3)cc2)C(=O)NCCCCCN1 [Compound 394] |
| 100 to 1000 | O=C1CNC(=O)[C@@H](Cc2ccc(NC(=O)[C@@H](NC(=O)Cc3ccccc3)c3ccccc3)cc2)NC(=O)CC2(CCCC2)CC(=O)NCCCCCN1 [Compound 415] |
| < 100 | C[C@H]1NC(=O)[C@@H](Cc2ccc(NC(=O)[C@H](Cc3ccccc3Cl)NC(=O)Cc3ccc(F)cc3)cc2)NC(=O)CC2(CCCC2)NC(=O)CCCCCCCNC1=O [Compound 619] |
| < 100 | CN1CCOCCOCCN(C)C(=O)[C@@H](Cc2ccc(NC(=O)[C@H](Cc3ccccc3Cl)NC(=O)Cc3ccc(F)cc3)cc2)NC(=O)CC2(CCCC2)CC1=O [Compound 590] |
| < 100 | CN1CCCCCN(C)C(=O)[C@@H](CC(N)=O)NC(=O)[C@@H](Cc2ccc(NC(=O)[C@H](Cc3ccccc3Cl)NC(=O)C(F)(F)c3ccccc3)cc2)NC(=O)CC2(CCCC2)CC1=O [Compound 669] |
| < 100 | C[C@H]1NC(=O)[C@@H](Cc2ccc(NC(=O)[C@H](Cc3ccccc3Cl)NC(=O)Cc3ccc(F)cc3)cc2)N(C)C(=O)CC2(CCCC2)CC(=O)N(C)CCCCCN(C)C1=O [Compound 489] |
| 1000 to 10000 | O=C1CC2(CCCC2)CC(=O)OCCCCCNC(=O)[C@@H](Cc2ccc(NC(=O)[C@@H](NC(=O)c3cccnc3)C3CCCCC3)cc2)N1 [Compound 423] |
| < 100 | O=C1CC2(CCCC2)CC(=O)N[C@H](Cc2ccc(NC(=O)[C@H](Cc3ccccc3Cl)NC(=O)Cc3cccc(O)c3)cc2)C(=O)NCCCC[C@@H](C(=O)O)N1 [Compound 461] |
| 100 to 1000 | CN1C(=O)CC2(CCCC2)CC(=O)NCCOCCOCCNC(=O)[C@H]1Cc1ccc(NC(=O)[C@H](Cc2ccccc2Cl)NC(=O)C2(c3ccc(F)cc3)CC2)cc1 [Compound 504] |
| 100 to 1000 | C[C@H]1NC(=O)[C@@H](Cc2ccc(NC(=O)[C@H](Cc3ccccc3Cl)NC(=O)Cc3ccc(F)cc3)cc2)NC(=O)CC2(CCOCC2)NC(=O)CCCCCCNC1=O [Compound 622] |
| < 100 | C[C@H]1NC(=O)[C@@H](Cc2ccc(NC(=O)[C@H](Cc3ccccc3Cl)NC(=O)C(=O)c3ccccc3)cc2)NC(=O)CC2(CCCC2)CC(=O)N(C)CCN(C)CCN(C)C1=O [Compound 573] |

| IC50 [nM] | SMILES |
| --- | --- |
| < 100 | C[C@H]1NC(=O)[C@@H](Cc2ccc(NC(=O)[C@@H](NC(=O)Cc3ccc(F)cc3)C3CCCCC3)cc2)NC(=O)CC2(CCCC2)CC(=O)N(C)CCCCCN(C)C1=O [Compound 623] |
| < 100 | CCOC(=O)N[C@@H](Cc1ccccc1Cl)C(=O)Nc1ccc(C[C@H]2NC(=O)CC3(CCCC3)CC(=O)NCCCCCNC(=O)[C@@H](C)NC2=O)cc1 [Compound 577] |
| 100 to 1000 | O=C1CC2(CCCC2)CC(=O)N[C@H](Cc2ccc(NC(=O)[C@@H](NC(=O)Cc3cccc(O)c3)c3ccccc3)cc2)C(=O)NCCOCCOCCN1 [Compound 481] |
| < 100 | CN1CCCCCN(C)C(=O)CC2(CCCC2)CC(=O)N[C@H](Cc2ccc(NC(=O)[C@H](Cc3ccccc3Cl)NC(=O)Cc3ccccc3)cc2)C(=O)NCC1=O [Compound 387] |
| < 100 | C[C@H]1NC(=O)[C@@H](Cc2ccc(NC(=O)[C@@H](Nc3nc4ccccc4o3)C3CCCCC3)cc2)NC(=O)CC2(CCCC2)CC(=O)N(C)CCOCCN(C)C1=O [Compound 663] |
| < 100 | CN1CCNC(=O)CC2(CCCC2)CC(=O)N[C@H](Cc2ccc(NC(=O)[C@H](Cc3ccccc3Cl)NC(=O)Cc3ccccc3)cc2)C(=O)N[C@H](Cc2ccccc2)C(=O)N(C)CC1 [Compound 416] |
| 100 to 1000 | O=C1CC2(CCCC2)CC(=O)N[C@H](Cc2ccc(NC(=O)[C@@H](NC(=O)c3cccnc3)C3CCCCC3)cc2)C(=O)NCCCCCCCCCN1 [Compound 407] |
| < 100 | CN1CCOCCN(C)C(=O)[C@@H](Cc2cccnc2)NC(=O)[C@@H](Cc2ccc(NC(=O)[C@@H](NC(=O)C(F)(F)c3ccccc3)C3CCCCC3)cc2)NC(=O)CC2(CCCC2)CC1=O [Compound 650] |
| < 100 | CNC(=O)N[C@@H](Cc1ccccc1Cl)C(=O)Nc1ccc(C[C@H]2NC(=O)CC3(CCCC3)CC(=O)NCCOCCOCCNC2=O)cc1 [Compound 464] |
| 100 to 1000 | C[C@H]1NC(=O)[C@@H](Cc2cccc(NC(=O)[C@H](Cc3ccccc3Cl)NC(=O)Cc3ccc(F)cc3)c2)NC(=O)CC2(CCCC2)CC(=O)NCCCCCNC1=O [Compound 492] |
| < 100 | O=C1CC2(CCCC2)CC(=O)N[C@H](Cc2ccc(NC(=O)[C@H](Cc3ccccc3Cl)NC(=O)Cc3ccc(F)cc3)cc2)C(=O)N[C@H](Cc2ccccn2)C(=O)NCCCCCN1 [Compound 435] |
| < 100 | CN1CCOCCOCCNC(=O)[C@@H](Cc2ccc(NC(=O)[C@@H](NC(=O)Cc3ccc(N(C)C)cc3)C3CCCCC3)cc2)NC(=O)CC2(CCCC2)CC1=O [Compound 640] |
| < 100 | CN1CCCC[C@@H](C(=O)O)N(C)C(=O)CC2(CCCC2)CC(=O)N[C@H](Cc2ccc(NC(=O)[C@H](Cc3ccccc3Cl)NC(=O)C(F)(F)c3ccccc3)cc2)C(=O)N[C@H](CCC(N)=O)C1=O [Compound 667] |
| 100 to 1000 | CN1C(=O)CC2(CCCC2)CC(=O)N[C@H](C(=O)O)CCCCNC(=O)[C@@H](C(C)(C)C)NC(=O)[C@H]1Cc1ccc(NC(=O)[C@H](Cc2ccccc2Cl)NC(=O)C2(c3ccc(F)cc3)CC2)cc1 [Compound 514] |
| < 100 | CN1CCOCCOCCNC(=O)[C@@H](Cc2ccc(NC(=O)[C@@H](NC(=O)C(F)(F)c3ccccc3)C3CCCCC3)cc2)NC(=O)CC2(CCCC2)CC1=O [Compound 611] |
| < 100 | O=C1CC2(CCCC2)CC(=O)N[C@H](Cc2ccc(NC(=O)[C@H](Cc3ccccc3Cl)NC(=O)c3ccc(F)cc3)cc2)C(=O)NCCOCCOCCN1 [Compound 521] |
| < 100 | NC(=O)CC[C@H]1NC(=O)[C@@H](Cc2ccc(NC(=O)[C@H](Cc3ccccc3Cl)NC(=O)C3(c4ccc(F)cc4)CC3)cc2)NC(=O)CC2(CCCC2)CC(=O)N[C@H](C(=O)O)CCCCNC1=O [Compound 527] |
| < 100 | C[C@H]1NC(=O)[C@@H](Cc2ccc(NC(=O)[C@H](Cc3ccccc3Cl)NC(=O)c3cncc4ccccc34)cc2)NC(=O)CC2(CCCC2)CC(=O)NCCCCCNC1=O [Compound 429] |

| SMILES | IC50 [nM] |
| --- | --- |
| C[C@H]1NC(=O)[C@@H](Cc2ccc(NC(=O)[C@H](Cc3ccccc3Cl)NC(=O)Oc3ccccc3)cc2)NC(=O)CC2(CCCC2)CC(=O)NCCCCCNC1=O [Compound 586] | < 100 |
| O=C1CC2(CCCC2)CC(=O)N[C@H](Cc2ccc(NC(=O)[C@H](Cc3ccccc3Cl)NC(=O)Oc3ccc(F)cc3)cc2)C(=O)NCCOCCOCCN1 [Compound 572] | < 100 |
| C[C@H]1NC(=O)[C@@H](Cc2ccc(NC(=O)[C@H](Cc3ccccc3Cl)NC(=O)Oc3ccccc3)cc2)NC(=O)CC2(CCCC2)CC(=O)N(C)CCN(C)CCN(C)C1=O [Compound 574] | < 100 |
